Holding throughout (assay type): cell-based
Assay [1] relates to human peripheral whole blood. Briefly: ET formation in diluted whole blood, live cell fluorescent microscopy (Sytox Green). As to conditions: 5 μM inhibitor; 20 μg/mL of human polyvalent Ig; whole blood 1/10 dilution. The method, then: High-binding, sterile 96-well plates (Greiner Bio-One, Frickenhausen, Germany) were coated with human polyvalent Ig as described in Example 1, using a coating solution comprising human polyvalent Ig at a concentration ranging from 10 to 80 μg/mL, as indicated.
Where indicated, the SYK inhibitor BAY-61-3606, obtained from Selleckchem (reference: S7006), was added to the whole blood samples diluted in culture medium at a final concentration of 5 μM.
Fresh human peripheral whole blood was collected from healthy donors and diluted ten times (1/10 dilution) in culture medium containing cell-impermeant, nucleic acid dye Sytox Green at a concentration of 1 μM to detect ET formation. Diluted whole blood was then distributed in 96-well plates (Greiner Bio-One, Frickenhausen, Germany), in particular in 96-well plates coated with human polyvalent Ig or bovine serum albumin (negative control) as described above.
Time-lapse images were acquired by live cell fluorescent microscopy. Quantitative time-course measure of ET formation was performed by computer-assisted image analysis (data are expressed as GCU/well).

The test system of assay [2] is human peripheral blood neutrophils. Briefly: NET formation by live cell fluorescent microscopy (Sytox Green) with computer-assisted image analysis. The method, then: (§1) Human polyvalent immunoglobulins (or human polyvalent Ig) also referred to as intravenous immunoglobulin or IVIg (Privigen, CSL Behring LLC) or human serum albumin or HSA (Sigma Aldrich—reference: H5667), used as negative control, diluted in coating solution (DPBS Gibco—reference: 14190) were allowed to adsorb for 2 hours at room temperature on high-binding, sterile 96-well plates suitable for fluorescence microscopy (Greiner Bio-One, Frickenhausen, Germany). Unless indicated otherwise, deposits of human polyvalent Ig were obtained with a coating solution (DPBS no calcium, no magnesium (ThermoFisher—reference: 14190) consisting of KCl 2.67 mM, KH2PO4 1.47 mM, NaCl 137.9 mM, Na2HPO4-7H2O 8.06 mM) comprising human polyvalent Ig at a concentration of 100 μg/mL. Similarly, unless indicated otherwise, deposits of HSA were obtained with a coating solution comprising HSA at a concentration of 100 μg/mL. Phorbol-12-myristate-13-acetate or PMA (Sigma Aldrich—reference: P8139) was used as positive control. PMA was added to the culture medium at a final concentration of nM. In some experiments (see FIG. 5A), human polyvalent Ig were added in the culture medium at a final concentration ranging from 3 to 300 μg/mL.
(§2) Neutrophils were isolated from the peripheral blood of healthy human donors by negative magnetic bead selection using a commercially available kit (STEMCELL Technologies—reference: 19666). Isolated neutrophils were then distributed in 96-well plates (Greiner Bio-One, Frickenhausen, Germany), in particular in 96-well plates coated with human polyvalent Ig or HSA as described above, at a concentration of 7.5×10^4 cells per well, corresponding to 10^6 cells/mL of culture medium. Neutrophils were then cultured in HBSS with calcium and magnesium (Gibco—reference: 24020-091) under standard conditions (i.e., humidified incubator 37° C. and 5% CO2). […]
(§3) High-binding, sterile 96-well plates (Greiner Bio-One, Frickenhausen, Germany) were coated with human polyvalent Ig as described in Example 1, using a coating solution comprising human polyvalent Ig at a concentration ranging from 3 to 300 μg/mL, as indicated. If no indication is given, deposits of human polyvalent Ig were obtained with a coating solution comprising human polyvalent Ig at a concentration of 100 μg/mL.
(§4) Where indicated, the SYK inhibitor BAY-61-3606, obtained from Selleckchem (reference: S7006), was added to the culture medium at a final concentration ranging from 0.05 to 5 (0.05, 0.1, 0.5, 1, 5 as indicated). Where indicated, the calcineurin inhibitor FK506 (also known as tacrolimus), obtained from ASTELLAS PHARMA (PROGRAF™ 5 mg/ml), was added to the culture medium at a final concentration ranging from 0.3 to 100 nM (0.3, 1, 3, 10, 30, 100 nM, as indicated). Where indicated, the humanized monoclonal antibody motavizumab directed against the respiratory syncytial virus (RSV), produced as a human IgG4 (by Evitria, Zurich, Switzerland), was added to the culture medium at a final concentration ranging from 1 to 100 μg/mL (1, 3, 10, 30, 100 μg/mL, as indicated). Human IgG4 can engage FcRI (CD64) and enhance the activation of human neutrophils triggered by immobilized immunoglobulins, which is mediated by FcRIIa and FcRIIIb, by the engagement of an additional signaling pathway.
Human peripheral blood neutrophils were isolated and cultured as described in Example 1. In particular, freshly isolated peripheral blood neutrophils were distributed in coated plate as described in Example 1 (7.5×10^4 cells per well, corresponding to 10^6 cells/mL of culture medium) and cultured for the indicated time.
The fluorescent, cell-impermeant, nucleic acid dye Sytox Green was added to the culture medium at a concentration of 1 μM to detect NET formation. ROS (reactive oxygen species) formation was identified by the use of a fluorescent oxidative-sensitive probe (CM-H2DCFDA, ThermoFisher Scientific—reference: C6827). […]

The subject of assay [3] is human peripheral blood eosinophils. As to the kind of experiment: EET formation by eosinophils, live cell fluorescent microscopy (Sytox Green). Particulars: 5 μM inhibitor; 100 μg/mL of human polyvalent Ig. The method, then:
High-binding, sterile 96-well plates (Greiner Bio-One, Frickenhausen, Germany) were coated with human polyvalent Ig as described in Example 1, using a coating solution comprising human polyvalent Ig at a concentration ranging from 10 to 300 μg/mL, as indicated.
Where indicated, the SYK inhibitor BAY-61-3606, obtained from Selleckchem (reference: S7006), was added to the culture medium at a final concentration of 5 μM.
as §2, with “Eosinophils” for “Neutrophils”, “19656).” for “19666).”, “eosinophils” for “neutrophils”, “bovine serum albumin (negative control)” for “HSA”, “1.5×10^4” for “7.5×10^4”, “2×10^5” for “10^6”
Time-lapse images were acquired by live cell fluorescent microscopy. Quantitative time-course measure of EET formation was performed by computer-assisted image analysis (data are expressed as GCU/well).

Assay [4] concerns human peripheral blood neutrophils. As to the kind of experiment: ROS formation with the oxidative-sensitive fluorescent probe CM-H2DCFDA, live cell imaging. Particulars: inhibitor 0 to 5 μM; plates coated with 100 μg/mL human polyvalent Ig; 6 hours. The method, then: as §3
as §4, with “Human IgG4 can engage FcRI (CD64) and enhance the activation of human neutrophils triggered by immobilized immunoglobulins, which is mediated by FcRIIa and FcRIIIb, by the engagement of an additional signaling pathway.” left out
Time-lapse images were acquired by live cell fluorescent microscopy. Quantitative time-course measure of ROS and NET formation was performed by computer-assisted image analysis (data are expressed as GCU/well).

For assay [5] the test system is unchanged. Briefly: NET detection in fixed neutrophils by fluorescence microscopy (Sytox Green, nuclear morphology). Particulars: 4 hours of culture, plate-bound human polyvalent Ig (coating solution 100 μg/mL) or PMA (25 nM) in culture medium. The method, then: as §1, with “300 μg/mL. […]” for “300 μg/mL.”
Images were acquired by fluorescence microscopy in the green channel. […]

[6] abbreviates: 24-hour live imaging, plate-bound human polyvalent Ig (coating solution 100 μg/mL) or PMA 25 nM.

“Also recorded” adds a separate entry of the source.

With `COc1ccc(-c2cc3nccn3c(Nc3ncccc3C(N)=O)n2)cc1OC` [BAY-61-3606], the “ET formation induced by immobilized human polyvalent Ig” value in assay [1] is “no ET formation”. Moreover, the “NET formation induced by immobilized human polyvalent Ig” value in assay [2] (inhibitor 0 to 5 μM, plates coated with 100 μg/mL human polyvalent Ig, 6 hours) is “decreased”. Further, the “NET formation elicited by motavizumab plus immobilized human polyvalent Ig” value in assay [2] (inhibitor at a concentration of 5, 100 μg/mL motavizumab and immobilized human polyvalent Ig (100 μg/mL coating)) is “completely abolishes the NET formation”. Further, the “EET formation induced by immobilized human polyvalent Ig” value in assay [3] is listed as “no EET formation”. In addition, in assay [4], the “ROS production induced by immobilized human polyvalent Ig” value was “decreased”.
For `CCCCCCCCCCCCCC(=O)O[C@@H]1[C@@H](C)[C@@]2(O)[C@@H](C=C(CO)C[C@]3(O)C(=O)C(C)=C[C@@H]23)[C@@H]2C(C)(C)[C@]12OC(C)=O` [PMA, phorbol 12-myristate 13-acetate], in assay [2] (setting [6]), the “NET formation rate change” value was “causes NET formation from all neutrophils at once” and the “NET formation time course” value was “NET induction was visible on almost all neutrophils from 3-hour culture; also recorded: drives the simultaneous formation of NETs from a great number of neutrophils, within as soon as 3 hours of culture”. Also, in assay [5], the “NET formation (nuclear morphology of neutrophils)” value is listed as “most neutrophils displayed signs of NETosis”.

B1: motavizumab: humanized monoclonal antibody directed against the respiratory syncytial virus (RSV), produced as a human IgG4 (antibody, chains of the INN, looked up, V domains shown)
VH: QVTLRESGPALVKPTQTLTLTCTFSGFSLSTAGMSVGWIRQPPGKALEWLADIWWDDKKHYNPSLKDRLTISKDTSKNQVVLKVTNMDPADTATYYCARDMIFNFYFDVWGQGTTVTVSS
VL: DIQMTQSPSTLSASVGDRVTITCSASSRVGYMHWYQQKPGKAPKLLIYDTSKLASGVPSRFSGSGSGTEFTLTISSLQPDDFATYYCFQGSGYPFTFGGGTKVEIK
modifications: IgG4
notes: humanized monoclonal antibody directed against the respiratory syncytial virus (RSV), produced as a human IgG4
On to B1, for which the “NET formation in presence of immobilized human polyvalent Ig” value in assay [2] (antibody 0 to 100 μg/mL in culture medium, plates coated with 100 μg/mL human polyvalent Ig, compared to coated IVIG without motavizumab) is “drives a proportional increase in the formation of NETs”. For the same molecule, the “NET formation in absence of immobilized immunoglobulins” value in assay [2] (antibody 0 to 100 μg/mL in culture medium, uncoated 96-well plates) is recorded as “is not able to drive the formation of NETs”.

The values are drawn from US20230288403A1, “METHOD FOR INDUCING EXTRACELLULAR TRAP (ET) FORMATION” (Tridek-One Therapeutics, priority 2022, published 2023).
